Experimental data taken from patent US20140275969A1, “FUNCTIONAL BROWN ADIPOSE TISSUE IMAGING TECHNIQUE” (GENERAL ELECTRIC COMPANY, priority 2013, published 2014).
Entries after “also recorded” stand apart in the source; their conditions may differ. Marks after values point to notes of the source that are not given here.

Experiments:
[1] = system: kidneys; assay: Hyperpolarized 13C MR imaging after norepinephrine stimulation, kidney ROI; type: in vivo, male Sprague-Dawley rats
Procedure: (§1) The following experimental results are from studies using male Sprague-Dawley rats (n=5, weight=336 g, SD=66 g) that were assessed for brown adipose tissue activation and assessment according to certain embodiments of the disclosure. The animals were kept at an ambient room temperature of 22° C. Ketamine/xylazine was used for anesthesia, with periodic intramuscular re-administration to maintain anesthesia (80-100 mg/kg ketamine, 8-10 mg/kg xylazine). Blood oxygen saturation and heart rate were monitored using a peripheral pulse oximeter placed on the tail. The body temperature of the animal was maintained throughout the imaging procedures using a heated water pad.
(§2) The animals were scanned in the supine position using a 3T GE MR750 scanner (GE Healthcare, Waukesha, Wis.). A micro-strip dual-tuned ^1H/^13C rat coil (Magvale, San Francisco, Calif.) was used. The rat was positioned so that the heart was in the centre of the coil, taking care to position the dorsal interscapular fat pad to remain within the sensitive region of the coil. A T2-weighted fast spin echo (FSE) (TE, 87 ms; TR, 5 s; matrix size, 192×160; FOV, 12×12 cm^2; slice thickness, 3 mm) sequence was used to obtain an anatomical reference for co-registration. A 2D FSE IDEAL sequence (TR, 5 s; matrix size, 192×160; FOV, 12×12 cm^2, slice thickness, 3 mm) was used to obtain water and fat images.
(§3) Hyperpolarized ^13C MR imaging scans were performed following intravenous tail vein infusions of 2.0 mL/80 mM pre-polarized [1-^13C] pyruvate. Pyruvate was injected over 10 seconds, with the MR imaging acquisition started simultaneously with the start of injection. Hyperpolarized scans were performed during baseline (n=5) and stimulated (n=3) conditions, 15 minutes after 2.5 mg/kg intraperitoneal norepinephrine (NE) injection, separated by approximately 1 hour to prepare the hyperpolarized sample. Pyruvate, bicarbonate, and lactate were imaged in an axial orientation using a multi-slice, single-shot, time-resolved 13C spiral imaging pulse sequence previously developed for large animal cardiac imaging (TR, 5 s; FOV, 48×48 cm^2; in-plane resolution, 6.8×6 8 mm^2; 6 slices, slice thickness/spacing, 10 mm/1 mm; pyruvate FA 10°, bicarbonate and lactate FA 60°; scan time, 1 min) (18, 24, 25). Each metabolic volume was acquired once during each TR, giving a total of 12 frames.
(§4) ROIs were drawn using the T2-weighted anatomical images, over the heart, kidneys, and in the dorsal interscapular region, a known depot of BAT in rodents. The ^13C image intensity in these ROIs were normalized to the temporal maximum pyruvate signal in the heart, and corrected for nominal FA by dividing by sin(FA). Statistical significance between baseline and norepinephrine stimulated conditions were assessed using a two-tailed, unpaired Student's t-test. Statistical significance was considered at the P<0.05 level.

[2] = system: brown adipose tissue (BAT-associated dorsal interscapular region); assay: Hyperpolarized 13C MR imaging of brown adipose tissue activation after norepinephrine stimulation; type: in vivo, male Sprague-Dawley rats
Procedure: as §1, §2, §3, §4
To separate the effect from the effect of a change in perfusion, the dynamic data was fit on a voxel-by-voxel basis to obtain the apparent rate constants for pyruvate-to-bicarbonate conversion (kpyr,bic, s^−1) and pyruvate-to-lactate exchange (kpyr,lac, s^−1).

[3] = system: heart; assay: Hyperpolarized 13C MR imaging after norepinephrine stimulation, heart ROI; type: in vivo, male Sprague-Dawley rats
Procedure: as §1, §2, §3, §4

[4] = human full blood at 37 degrees C.; cited from earlier work
[5] = BAT-associated dorsal interscapular region, voxel-by-voxel fit of dynamic data

NC[C@H](O)c1ccc(O)c(O)c1 [Norepinephrine, norepinephrine]
Maximum bicarbonate to maximum cardiac pyruvate signal ratio ([1]; kidney, 15 minutes after 2.5 mg/kg intraperitoneal norepinephrine, n = 2, mean±SD): 0.0036 ± 0.0028^ns | Maximum lactate to maximum cardiac pyruvate signal ratio ([1]; kidney, 15 minutes after 2.5 mg/kg intraperitoneal norepinephrine, n = 3, mean±SD): 0.0625 ± 0.0130 | 13C bicarbonate signal change following norepinephrine stimulation, relative to substrate signal in the heart ([1]; kidney, in words): decreased | Increase in hyperpolarized lactate signal versus baseline ([1]; kidneys, P<0.05): 1.9 fold | Hyperpolarized [1-13C] lactate signal change following norepinephrine infusion ([1]; kidneys, in words): Increases | 13C bicarbonate signal change following norepinephrine stimulation, relative to substrate signal in the heart ([2]; BAT-associated dorsal interscapular region, in words): increased | Difference in apparent pyruvate-to-bicarbonate conversion rate (kpyr,bic) versus baseline [2, 5]: 3.4 fold | Difference in apparent pyruvate-to-lactate conversion rate (kpyr,lac) versus baseline [2, 5]: 4.0 fold | Increase in hyperpolarized [1-13C] lactate (lactate-to-pyruvate ratio) versus baseline ([2]; BAT-associated interscapular region, P<0.001): 4.0 fold | Increase in hyperpolarized 13C bicarbonate (bicarbonate-to-pyruvate ratio) versus baseline ([2]; BAT-associated interscapular region, P<0.01): 4.3 fold | Hyperpolarized [1-13C] lactate signal change following norepinephrine infusion ([2]; dorsal interscapular region, in words): Increases | Maximum bicarbonate to maximum cardiac pyruvate signal ratio ([2]; interscapular region, 15 minutes after 2.5 mg/kg intraperitoneal norepinephrine, n = 2, mean±SD): 0.0047 ± 0.0010*^ | Maximum lactate to maximum cardiac pyruvate signal ratio ([2]; interscapular region, 15 minutes after 2.5 mg/kg intraperitoneal norepinephrine, n = 3, mean±SD): 0.0543 ± 0.0051 | Maximum bicarbonate to maximum cardiac pyruvate signal ratio ([3]; 15 minutes after 2.5 mg/kg intraperitoneal norepinephrine, n = 2, mean±SD): 0.0099 ± 0.0032^ns | Maximum lactate to maximum cardiac pyruvate signal ratio ([3]; 15 minutes after 2.5 mg/kg intraperitoneal norepinephrine, n = 3, mean±SD): 0.0816 ± 0.0191 | Increase in hyperpolarized lactate signal versus baseline ([3]; P<0.001): 4.0 fold | Hyperpolarized [1-13C] lactate signal change following norepinephrine infusion ([3]; in words): Increases | 13C bicarbonate signal change following norepinephrine stimulation, relative to substrate signal in the heart ([3]; in words, listed as NE): remained constant | 13C bicarbonate signal change following norepinephrine stimulation, relative to substrate signal in the heart ([3]; in words, listed as norepinephrine): remained constant; also recorded: not statistically significant

CC(=O)[13C](=O)O [^13C1-pyruvate, [1-^13C] pyruvate]
T1 relaxation [4]: about 42 s
